One may read the inhibition as the drop in the measured response relative to a control, in per cent. The term IC50 denotes the midpoint of a concentration-inhibition curve.

Results on 13 compounds are retold here after ChEMBL document CHEMBL1147855, “Synthesis and evaluation of sulfonylurea derivatives as novel antimalarials” (Eur J Med Chem, 2007).

Test [1] relates to Plasmodium berghei. Description: Antimalarial activity against Plasmodium berghei ANKA at 20 mg/kg intraperitoneal dose as reduced parasitaemia by Peter's assay. In kind it is functional. The arrangement: scale not given: the % may be the effect or the level left.
Test [2] is described as follows: Inhibition of hemoglobin hydrolysis in mouse erythrocytes at 5 mM after 18 hrs relative to control. In kind it is cell-based. The conditions noted are these: Erythrocyte.
Test [3] deals with Plasmodium falciparum. In words: Antimalarial activity against chloroquine-resistant Plasmodium falciparum W2 after 48 hrs by FACS. It counts as functional, organism-based. As to conditions: W2, 48 h.
Test [4] concerns Mus musculus. Description: Survival of NIH mice (Mus musculus) infected with Plasmodium berghei ANKA infected erythrocytes at 20 mg/kg, intraperitoneal after 4 days by Peter's test. In kind it is functional.

On to `O=C(Nc1ccc(C(=O)/C=C/c2ccc3c(c2)OCO3)cc1)NS(=O)(=O)c1ccc(Cl)cc1`, for which the Activity in test [1] was 3.4%. Besides, 5000 µM produced 50.6% inhibition in test [2]. This compound registered a half-maximal inhibitory concentration (IC50) in test [3] of 9.7 µM. The same compound gave a Survival in test [4] of 2.16 days.
With `Cc1ccc(S(=O)(=O)NC(=O)Nc2ccc(C(=O)/C=C/c3ccc(F)cc3)cc2)cc1`, it took 10 µM to reach half-maximal inhibition in test [3] (IC50).
On to `Cc1ccc(S(=O)(=O)NC(=O)Nc2ccc(C(=O)/C=C/c3ccc4c(c3)OCO4)cc2)cc1`, for which, in test [3], half-maximal inhibition (IC50) required 9.6 µM.
The same measure, in the same setting: with `Cc1ccc(S(=O)(=O)NC(=O)Nc2ccc(C(=O)/C=C/c3cc4ccccc4nc3Cl)cc2)cc1` the figure was 9.6 µM.
In test [3], `COc1cc2cc(/C=C/C(=O)c3ccc(NC(=O)NS(=O)(=O)c4ccc(C)cc4)cc3)c(Cl)nc2cc1OC` gave a half-maximal inhibitory concentration (IC50) of 10 µM.
In test [1], `O=C(Nc1ccc(C(=O)/C=C/c2ccc(F)cc2)cc1)NS(=O)(=O)c1ccc(Cl)cc1` had an Activity of 10.6%. This compound had an inhibition at 5000 µM in test [2] of 34.5%. Besides, in test [3], the IC50 was 10 µM. Further, the Survival in test [4] worked out at 1 days.
The like results for `COc1cc(/C=C/C(=O)c2ccc(NC(=O)NS(=O)(=O)c3ccc(Cl)cc3)cc2)cc(OC)c1OC` were, in that order, 8%, 36.7%, 9.4 µM and 1.83 days.
On to `Cc1ccc(S(=O)(=O)NC(=O)Nc2ccc(C(=O)/C=C/c3ccc(F)cc3F)cc2)cc1`, for which the Activity in test [1] amounted to 15.2%. The compound also returned an inhibition at 5000 µM in test [2] of 90.3%. Further, in test [3], it took 1.2 µM to reach half-maximal inhibition (IC50). Moreover, in test [4], the Survival was 1 days.
`COc1cc(/C=C/C(=O)c2ccc(NC(=O)NS(=O)(=O)c3ccc(C)cc3)cc2)cc(OC)c1OC` yielded a 50% inhibitory concentration (IC50) in test [3] of 8.8 µM.
On to `O=C(Nc1ccc(C(=O)/C=C/c2ccc(F)cc2F)cc1)NS(=O)(=O)c1ccc(Cl)cc1`, for which the Activity in test [1] is 5.2%. The IC50 in test [3] was 2.1 µM. Besides, the Survival in test [4] is 3 days.
In the case of `CCN(CC)CCCC(C)Nc1ccnc2cc(Cl)ccc12` (configuration not stated) [CHLOROQUINE], the Activity in test [1] turned out to be 3.66%.
In turn, `CC(=O)N[C@@H](CC(C)C)C(=O)N[C@@H](CC(C)C)C(=O)N[C@H](C=O)CCCNC(=N)N` [LEUPEPTIN] showed an inhibition at 5000 µM in test [2] of 87%.
Same read-out and setting: as for `CC(C)CC(=O)N[C@H](C(=O)N[C@H](C(=O)N[C@@H](CC(C)C)[C@@H](O)CC(=O)N[C@@H](C)C(=O)N[C@@H](CC(C)C)[C@@H](O)CC(=O)O)C(C)C)C(C)C` [PEPSTATIN], the figure is 91.9%.
